Measurements: PubChem BioAssay AID687000 (Broad Institute, 2013)
Values joined by “and” are separate entries in the source; they are usually repeats but may differ in a detail not shown here. Identical values can stand only once. Active and inactive are the calls of the source.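 How the source made its calls: active means fitted dose curve reaches 40% lysis signal rise at or below the highest valid concentration tested for that sample; inconclusive means flat fit between 30% and 70%, or poor curve fit; inactive means signal falls, stays flat within 30%, or no crossing.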

Each compound was assayed on C. neoformans lysis, adenylate kinase release luminescence, 4 h (assay: inducers of Cryptococcus neoformans cell lysis, dose response, AK release luminescence, cherry-picks (AID 687000)).

Row | SMILES | AC40
1 | CCCC(=O)Nc1ccc2c(c1)C(=O)N(C)C[C@H](OC)[C@@H](C)CN(C(=O)c1cccnc1)[C@H](C)CO2 | 13.7 µM
2 | S=C(NCCCc1ccccc1)Nc1ccccc1 | 2.56 µM
3 | Cc1cc(C)c2nc(N3CCN(C(=O)c4cccs4)CC3)sc2c1 | 2.56 µM
4 | COC(=O)C1=C(C)N(Cc2ccccc2)C(=S)N[C@H]1c1cccc(C(F)(F)F)c1 | > 15 µM (inactive)
5 | Cc1ccccc1NC(=S)NC(=O)CCc1ccccc1 | 4.93 µM
6 | Cc1noc(C)c1S(=O)(=O)Nc1ccc2c(c1)CC(=O)N([C@H](C)CO)C[C@H](C)[C@H](CN(C)S(=O)(=O)c1cccs1)O2 | > 15 µM (inactive)
7 | NC(=S)N/N=C/c1ccc(-c2cc(Cl)ccc2Cl)o1 | 0.644 µM
8 | O=C(NC(=S)NCC1COc2ccccc2O1)c1ccc(Cl)cc1 (stereo not drawn) | 3.44 µM
9 | O=C(C1CCOCC1)N1CC[C@@H]2[C@@H](CO)Nc3ccc(Br)cc3[C@@H]21 | > 15 µM (inactive)
10 | COC(=O)C1=C(C)N(Cc2ccc(F)cc2)C(=S)NC1c1cccc(F)c1 (stereo not drawn) | 14.2 µM and 2.63 µM
11 | Cc1ccc(C(=O)NC(=S)Nc2ccc(N3CCOCC3)cc2)cc1 | 11.9 µM
12 | O=C(COC(=O)CCC1CCCC1)Nc1nc2c(F)c(F)c(F)cc2s1 | > 15 µM (inactive)
13 | Fc1ccccc1NC(=S)NN(Cc1ccccc1)c1ccccc1 | 5.17 µM
14 | COc1cc2c(C(=O)N(C)c3cc(Cl)ccc3OC)cn(C)c(=O)c2cc1OC | > 15 µM (inactive)
15 | O=C(NC(=S)Nc1ccccc1N1CCOCC1)c1cccc([N+](=O)[O-])c1 | 5.69 µM
16 | CC(C)NC(=O)Nc1ccc2c(c1)CC(=O)N([C@@H](C)CO)C[C@@H](C)[C@H](CN(C)C(=O)Nc1ccc3c(c1)OCO3)O2 | > 15 µM (inactive)
17 | COC(=O)C1=C(C)N(Cc2ccc(Br)cc2)C(=S)NC1c1ccccc1 (stereo not drawn) | 2.1 µM
18 | O=C(NC(=S)Nc1ccccc1N1CCCC1)c1ccc([N+](=O)[O-])cc1 | 2.09 µM
19 | O=C(NC(=S)Nc1cccc(F)c1)c1cccc([N+](=O)[O-])c1 | 3.02 µM
20 | CC(C)CC1(C)N=C(c2ccccc2)C(=S)N1 (stereo not drawn) | 11.2 µM
21 | C[C@@H]1CCCCO[C@H](CN(C)C(=O)CCCN(C)C)[C@@H](C)CN([C@H](C)CO)C(=O)c2cc(NC(=O)Cc3ccccc3)ccc2O1 | > 15 µM (inactive)

Row | SMILES | AC40
22 | Cc1noc(C)c1S(=O)(=O)Nc1ccc2c(c1)CC(=O)N([C@H](C)CO)C[C@H](C)[C@@H](CN(C)S(=O)(=O)c1cn(C)cn1)O2 | > 15 µM (inactive)
23 | CCCNC(C)C(=O)Nc1ccccc1C (stereo not drawn) | > 15 µM (inactive)
24 | COc1ccc(CNC(=S)NCc2ccc(OC(C)C)cc2)cc1 | 8.39 µM
25 | COc1cccc(C(=O)NC(=S)Nc2ccccc2N2CCOCC2)c1 | > 15 µM (inactive)
26 | CCCN1C[C@H](C)[C@@H](OC)CN(C)C(=O)c2cc(NC(=O)c3cccc(F)c3)ccc2OC[C@@H]1C | > 15 µM (inactive)
27 | COC(=O)C1=C(C)N(Cc2ccccc2)C(=O)N[C@H]1c1cccc(F)c1 | > 15 µM (inactive)
28 | CCc1nc(N2CCCCC2C)c2oc3ccccc3c2n1 (stereo not drawn) | 1.65 µM
29 | Cc1cccc(C)c1NC(=O)CN(C)C(=O)C1CC1C (stereo not drawn) | > 15 µM (inactive)
30 | CCCC(=O)N1CCC1(C)C(=O)Nc1ccc(C)cc1 (stereo not drawn) | > 28.5 µM (inactive)
31 | C[C@H](O)C#Cc1ccc2c(c1)O[C@H](CN(C)Cc1ccncc1)[C@H](C)CN([C@H](C)CO)S2(=O)=O | > 15 µM (inactive)
32 | CC(C)CC#Cc1cnc2c(c1)C(=O)N([C@H](C)CO)C[C@H](C)[C@@H](CN(C)Cc1cccc(F)c1)O2 | > 15 µM (inactive)
33 | COC(=O)C1=C(C)N(Cc2ccc(Cl)cc2)C(=S)NC1c1ccccc1 (stereo not drawn) | 2.53 µM
34 | COc1ccccc1CNC(=S)NCc1ccc(Cl)cc1 | 2.03 µM
35 | COC(=O)C1=C(C)N(Cc2ccc(F)cc2)C(=S)NC1c1ccc(Cl)cc1 (stereo not drawn) | > 15 µM (inactive)
36 | COCC(=O)N(C)C[C@H]1Oc2ncc(-c3ccccc3F)cc2C(=O)N([C@@H](C)CO)C[C@H]1C | > 15 µM (inactive)
37 | COC(=O)C1=C(C)N(Cc2ccccc2)C(=S)N[C@H]1c1cccc(F)c1 | 11.7 µM
38 | C[C@@H]1CN([C@@H](C)CO)C(=O)c2cc(NS(=O)(=O)c3cn(C)cn3)ccc2O[C@@H](C)CCCCO[C@@H]1CN(C)Cc1ccc(C(F)(F)F)cc1 | > 15 µM (inactive)
39 | CO[C@@H]1CN(C)C(=O)c2cc(NS(=O)(=O)c3cccc(C)c3)ccc2OC[C@@H](C)NC[C@H]1C | > 15 µM (inactive)
40 | COc1cccc(NC(=S)N2CCC(Cc3ccccc3)CC2)c1 | 3.35 µM
41 | CC(C)NC(=O)N(C)C[C@H]1OCCCC[C@H](C)Oc2ccc(NC(=O)c3ccccc3)cc2C(=O)N([C@@H](C)CO)C[C@@H]1C | > 15 µM (inactive)
42 | CCOC(=O)NC(=S)Nc1ccc(C(C)(C)C)cc1Br | 3.16 µM

Row | SMILES | AC40
43 | O=C(NC1CCCCC1)N[C@H]1C=C[C@@H](CC(=O)N2CCOCC2)O[C@@H]1CO | > 15 µM (inactive)
44 | COC(=O)C1=C(C)N(Cc2ccc(Cl)cc2)C(=S)NC1c1ccc(OC)cc1 (stereo not drawn) | 11.8 µM
45 | O=C(CC1CC1)N1[C@@H]2CN(S(=O)(=O)c3ccccc3)c3ccccc3[C@@H]2[C@@H]1CO | > 16 µM (inactive)
46 | COc1ccc(C(=O)NC(=S)Nc2ccccc2N2CCOCC2)cc1[N+](=O)[O-] | > 15 µM (inactive)
47 | O=C(CN(c1ccc(F)cc1)S(=O)(=O)c1ccccc1)N1CCOCC1 | > 15 µM (inactive)
48 | COC(=O)C1=C(C)N(CC(C)C)C(=S)NC1c1cccc(F)c1 (stereo not drawn) | > 15 µM (inactive) and 3.43 µM
49 | COc1cccc(-c2ccc3c(c2)[C@H]2[C@H](CCN2C(=O)Cc2ccncc2)[C@H](CO)N3C)c1 | > 15 µM (inactive)
50 | C[C@@H]1CN([C@H](C)CO)S(=O)(=O)c2ccc(C#CC3CC3)cc2O[C@H]1CN(C)CC1CCOCC1 | > 15 µM (inactive)
51 | Cc1cccc(-c2ccc([C@H]3[C@H](CO)N4CCCCN(C(=O)c5ccc6c(c5)OCO6)C[C@@H]34)cc2)c1 | > 15 µM (inactive)
52 | Cc1cccc(C)c1NC(=O)CN(C)C(=O)C1CCCCC1 | > 15 µM (inactive)
53 | Cc1ccc2nc(C)c3c(c2c1)OC(C(C)(Cl)Br)C3 (stereo not drawn) | > 15 µM (inactive)
54 | Cc1noc(C)c1NC(=O)N(C)C[C@H]1OCCCC[C@H](C)Oc2ccc(NC(=O)NC(C)C)cc2C(=O)N([C@@H](C)CO)C[C@@H]1C | > 15 µM (inactive)
55 | COc1cccc(S(=O)(=O)N(C)C[C@@H]2OCc3ccccc3-c3ccccc3C(=O)N([C@@H](C)CO)C[C@@H]2C)c1 | > 15 µM (inactive)
56 | COC(=O)C1=C(C)N(CC(C)C)C(=S)NC1c1ccc(Cl)cc1 (stereo not drawn) | 2.36 µM and 0.971 µM
57 | C[C@H]1CN([C@@H](C)CO)S(=O)(=O)c2ccc(Br)cc2O[C@@H]1CN(C)C(=O)CCN1CCCCC1 | > 15 µM (inactive)
58 | C[C@H](CO)N1C[C@H](C)[C@@H](CN(C)Cc2ccc(-c3ccccc3)cc2)Oc2ccc(NC(=O)Nc3ccc(C(F)(F)F)cc3)cc2C1=O | > 15 µM (inactive)
59 | CC[C@H](C)[C@@H]1NC(=O)CNC(=O)c2csc(n2)[C@H](C(C)(C)O)OC(=O)C(C)(C)[C@H](CCCC(C)(Cl)Cl)OC(=O)c2csc1n2 | 2.66 µM
60 | COC(=O)C1=C(C)N(Cc2ccccc2)C(=S)N[C@H]1c1ccc(Br)cc1 | 2.89 µM and 9.81 µM
61 | C[C@H](CO)N1C[C@H](C)[C@@H](CN(C)C(=O)c2ccncc2)OCCCC[C@H](C)Oc2ccc(NC(=O)Cc3ccccc3)cc2C1=O | > 15 µM (inactive)
62 | CCOC(=O)c1c(-c2ccc(-c3ccccc3)cc2)csc1NC(=O)CNCCN(C)C | 1.62 µM
63 | CCCOc1ccc(CNC(=S)NCc2ccc(OC(C)C)cc2)cc1 | 14.3 µM
